The conditions of data set [1]: cited from earlier work.
The subject of data set [2] is NIH3T3 cells. As to the kind of experiment: β-galactosidase staining assay, UV photoaging model. The conditions noted are these: after UV irradiation, 24 h. Type of data set: cell-based, Mouse. The text has this: (§1) Mouse skin fibroblasts (NIH3T3) were purchased from the Shanghai Cell Bank of China Center for Type Culture Collection under the Chinese Academy of Sciences.
• CA, at a test concentration of 1 ppm, 10 ppm, and 100 ppm, respectively; • GA, at a test concentration of 10 ppm; • the reference peptide, at a test concentration of 1 ppm, 10 ppm, and 100 ppm, respectively; • the peptide (2), at a test concentration of 1 ppm, 10 ppm, and 100 ppm, respectively; • the peptide (4) at a test concentration of 10 ppm. 3.
The purpose of this experiment is to test the impact of the peptide derivatives of the present invention on cell senescence using a β-galactosidase staining assay to evaluate the anti-photoaging capability.
(§2) The frozen NIH3T3 cells were cultured and passaged at a ratio of 1:2 to about the 5th generation, and the cells in better growth were selected as experiment subjects.
The cells were inoculated into a 96-well plate at 10,000 cells/well, and when the cells were approximately 80% full, a UV photoaging model was established. In the control group, a PBS solution was added, supplemented with the culture medium to 200 μL, while no UV irradiation was performed; For the UV group and the drug group, a proper amount of PBS was added to wash the culture repeatedly until colorless, followed by adding 50 μL PBS and irradiating under an 80 J/cm^3 UV light. The distance between the light source and the culture bottle was 15 cm. After irradiation, the PBS was removed. In the UV group, a PBS solution and the culture medium were added to 200 μL; in the drug group, the culture medium and the drug diluted in a certain ratio were added to 200 μL. The control group, the UV group, and the drug group were further incubated in a 37° C., 5% CO2 incubator for 24 h. The culture medium was removed. 100 μL 4% paraformaldehyde was added to each well and fixed at room temperature for 15 min, followed by washing with PBS three times, adding a β-galactosidase staining agent (X-gal 0.01%, potassium ferricyanide 0.16%, ferrocyanide potassium 0.02%) 50 μL/well, sealing with plastic wrap, and staining in a 37° C. incubator in the dark for 12 h. The staining solution was removed. Each group was washed with PBS three times, and photographed under a light microscope. The number of cells in the field of view and the number of stained cells were counted.
UV irradiation can cause cell senescence, and the cytoplasm of senescent cells are stained blue-green by the β-galactosidase agent (shown as the dark part in the black and white images). This experiment evaluates the anti-photoaging capability of the peptide derivatives of the present invention through staining morphology images and senescent cell staining statistics.

Data set [3] deals with NIH3T3 cells. Briefly: Cell proliferation assay (MTT). Type of data set: cell-based, Mouse. As to conditions: 72 h.
Source text: as §1
• CA, at a test concentration of 1 ppm, 10 ppm, 100 ppm, and 500 ppm, respectively; • GA, at a test concentration of 1 ppm, 10 ppm, 100 ppm, and 500 ppm, respectively; • the peptide H-Gly-Pro-Gln-Gly-Pro-Gln-NH2 (hereinafter referred to as the reference peptide), at a test concentration of 1 ppm, 10 ppm, 100 ppm, and 500 ppm, respectively; • the peptide (2) CA-Gly-Pro-Gln-Gly-Pro-Gln-NH2, at a test concentration of 1 ppm, 10 ppm, 100 ppm, and 500 ppm, respectively; • the peptide (4) GA-Gly-Pro-Gln-Gly-Pro-Gln-NH2, at a test concentration of 1 ppm, 10 ppm, 100 ppm, and 500 ppm, respectively.
The purpose of this experiment is to evaluate cell viability 72 h after administration and determine the effect of the peptide derivatives of the present invention on cell proliferation by using NIH3T3 cells as the experiment subject.
NIH3T3 cells in good exponential growth phase were taken. A 0.25% trypsin digestion solution was added so that digestion allowed the adherent cells to fall off, counting (1−4)×10^5 cells/mL, which were prepared into a cell suspension.
The cell suspension was inoculated on a 96-well plate with 200 μL/well, and cultured in a constant-temperature CO2 incubator for 24 h.
After changing the medium, the cell suspension was added to drug groups and the control group, respectively, each of which was placed in 20 μL/well and incubated in a 37° C., 5% CO2 incubator for 72 h.
Then 20 μL 5 mg/ml MTT was added to each well and the incubation was continued for 4 h in the 37° C., 5% CO2 incubator. The original solution was removed and 150 μL/well DMSO was added. The plate was placed on a plate shaker for shaking for 5 min. A microplate reader was used to determine the OD value of each well at a wavelength of 570 nm, and calculate the cell viability.
Cell viability=[OD(administration well)−OD(zero adjustment well)]/[OD(control well)−OD(zero adjustment well)]×100%

The subject of data set [4] is NIH3T3 cells. Briefly: ROS staining assay, UV photoaging model. As to conditions: after UV irradiation, 24 h, ROS fluorescent probe. Type of data set: cell-based, Mouse.
Source text: as §1
• CA, at a test concentration of 1 ppm; • GA, at a test concentration of 10 ppm; • the reference peptide, at a test concentration of 1 ppm and 10 ppm, respectively; • the peptide (2), at a test concentration of 1 ppm; • the peptide (4), at a test concentration of 10 ppm.
Another indication of aging is an increase in intracellular oxidative stress levels, that is, an increase in ROS, and aging can be slowed down by alleviating oxidative stress. The purpose of this experiment is to test the impact of the peptide derivatives of the present invention on oxidative stress levels using ROS staining assay, thereby evaluating the antioxidant effect.
as §2
The cells were inoculated into a 96-well plate at 10,000 cells/well, and when the cells were approximately 80% full, a UV photoaging model was established. In the control group, a PBS solution was added, supplemented with the culture medium to 200 μL, while no UV irradiation was performed; For the UV group and the drug group, a proper amount of PBS was added to wash the culture repeatedly until colorless, followed by adding 50 μL PBS and irradiating under an 80 J/cm^3 UV light. The distance between the light source and the culture bottle was 15 cm. After irradiation, the PBS was removed. In the UV group, a PBS solution and the culture medium were added to 200 μL; in the drug group, the culture medium and the drug diluted in a certain ratio were added to 200 μL. The control group, the UV group, and the drug group were further incubated in a 37° C., 5% CO2 incubator for 24 h.
The culture medium was removed. Each group was stained according to the ROS probe instructions for 20 min and was observed under a fluorescence microscope.

[5] abbreviates: test concentrations 1 ppm to 100 ppm.
Setting [6] is: 500 ppm, compared with the control group.

Residues, ends and D or L forms follow the SMILES beside them. *: point of attachment. Caffeoyl = O=C(/C=C/c1ccc(O)c(O)c1)*; Galloyl = O=C(c1cc(O)c(O)c(O)c1)*

Take “H-Gly-Pro-Gln-Gly-Pro-Gln-NH2 (H-GPQGPQ-NH2) [reference peptide, collagen peptide of EP1406589B1]”: in data set [1] (water), the solubility in water result was “good solubility in water”. The “proportion of senescent cells (β-galactosidase staining)” value (shortened to “proportion of senescent cells”) with NIH3T3 cells [2] (setting [5]) is “unable to reduce the proportion of senescent cells”. Further, the “effect on NIH3T3 cell viability” value in the data set on NIH3T3 cells [3] (10 ppm to 500 ppm, compared with the control group) is “improved cell viability”. The figures for the “ROS level per unit cells” value in the data set on NIH3T3 cells [4] (1 ppm) and in the data set on NIH3T3 cells [4] (10 ppm) were “failed to reduce the ROS level per unit cells” and “had a certain effect in reducing ROS”, respectively.
Take `O=C(O)C=Cc1ccc(O)c(O)c1` [CA, 3,4-dihydroxycinnamic acid]: the “solubility in cold water” value in data set [1] is reported as “slightly soluble”. Moreover, the “proportion of senescent cells” value in the data set on NIH3T3 cells [2] (setting [5]) is listed as “unable to reduce the proportion of senescent cells”. The “effect on NIH3T3 cell viability / toxicity” value in the data set with NIH3T3 cells [3] (setting [6]) is given as “significant toxicity”. In the data set with NIH3T3 cells [4] (1 ppm), the “ROS level per unit cells” value is given as “reduced the ROS level per unit cells to a certain extent”.
Consider `NC(=O)CCC(NC(=O)C1CCCN1C(=O)CNC(=O)C(CCC(N)=O)NC(=O)C1CCCN1C(=O)CNC(=O)/C=C/c1ccc(O)c(O)c1)C(N)=O` (stereo not drawn) [peptide (2), CA-Gly-Pro-Gln-Gly-Pro-Gln-NH2] (Caffeoyl-GPQGPQ-NH2; configuration not given here), for which, in the data set with NIH3T3 cells [2] (setting [5]), the “proportion of senescent cells” value is listed as “significantly reduced the proportion of senescent cells”. Also, the “effect on NIH3T3 cell viability / toxicity” value in the data set on NIH3T3 cells [3] (setting [6]) was “significantly improve cell viability”. For the same compound, the “ROS level per unit cells” value in the data set on NIH3T3 cells [4] (1 ppm) was “significantly reduced the expression of ROS per unit cells”.
`O=C(O)c1cc(O)c(O)c(O)c1` [GA, 3,4,5-trihydroxybenzoic acid]: in data set [1], the “solubility in cold water” value is on record as “insoluble”. In the data set on NIH3T3 cells [2] (10 ppm), the “proportion of senescent cells” value was “unable to reduce the proportion of senescent cells”. Further, the “effect on NIH3T3 cell viability / toxicity” value in the data set on NIH3T3 cells [3] (100 ppm, compared with the control group) is “significant toxicity”; in the data set with NIH3T3 cells [3] (setting [6]), “significant toxicity”. Further, in the data set on NIH3T3 cells [4] (10 ppm), the “ROS level per unit cells” value is listed as “had a certain effect in reducing ROS”.
Take `NC(=O)CCC(NC(=O)C1CCCN1C(=O)CNC(=O)C(CCC(N)=O)NC(=O)C1CCCN1C(=O)CNC(=O)c1cc(O)c(O)c(O)c1)C(N)=O` (stereo not drawn) [peptide (4), GA-Gly-Pro-Gln-Gly-Pro-Gln-NH2] (Galloyl-GPQGPQ-NH2; configuration not given here): the “proportion of senescent cells” value with NIH3T3 cells [2] (10 ppm) is “reduced the proportion of senescent cells”. In the data set with NIH3T3 cells [3] (high concentrations), the “toxic effect on NIH3T3 cells” value is “did not have a toxic effect”. Besides, the “ROS level per unit cells” value with NIH3T3 cells [4] (10 ppm) is listed as “more significantly reduced the expression of ROS per unit cells”.

(Values after patent publication US20240279275A1, “HEXAPEPTIDE DERIVATIVE AND COSMETIC COMPOSITION OR PHARMACEUTICAL COMPOSITION AND USE THEREOF” (SHENZHEN WINKEY TECHNOLOGY CO., LTD, priority 2021, published 2024).)
